Publication PMC6473556, “Targetable Mechanical Properties by Switching between Self‐Sorting and Co‐assembly with In Situ Formed Tripodal Ketoenamine Supramolecular Hydrogels” (Chemnanomat, 2018)

Key:
Type in all cases: physicochemical
[1] = Rheometry of the gels (time, frequency and stress sweeps); details: gel at 40 mM gelator concentration, standard deviation in brackets; for Yield stress: rounded to nearest 10; for G′ / G′′: rounded to nearest 100
Protocol: Another observation is the difference in transparency between the gels (Figure 1). Gels R2 and R6 are noticeably more transparent than the other gels. This transparency is a result of gels R2 and R6 having narrower fibres and therefore scattering less light (Figure S59). […] The responses of the nine presented gels to mechanical stimulus were determined using rheometry (Table 1). Although differences in mechanical properties are apparent when comparing one gel to another the difference between the same gel prepared ex situ and in situ is negligible (see ESI). Once a constant value for G′ had been recording during the time sweep experiments, the gelatinous nature of the materials was confirmed using frequency sweep rheometry.
For all gels the G′ and G“ values remained constant over a frequency range of 0.1–100 Hz, with the value of G′ several times the value recorded for G” (Figure 3). To examine the gels’ non‐linear rheological behaviour stress sweep experiments were conducted. The defining point of the experiment is the yield stress, below which G′ remains essentially constant, but above which the gel begins to flow (see ESI).

[2] = Critical gel concentration, inverted vial method; details: 0.5 ml water
Protocol: 3.3 Setting gel using the ex situ prepared compound (gels R1 to R8 inclusively):
This procedure describes the method used in a typical setting of the hydrogel at 2 wt% using the previously prepared synthesised compound.
The gel ligand (0.1 g) was suspended in water, to this suspension sodium hydroxide was added (0.05 g, 1.25 mmol). Sonication and gentle heating was used to ensure the ligand had completely dissolved giving a solution with a pH of 9 – 10. To this solution glucono delta-lactone (GdL) (0.08 g, 0.45 mmol) was added and the solution was shaken until the GdL had […]
3.4 Setting gel R9 using the ex situ prepared compound:
This procedure describes the method used in a typical setting of the hydrogel R9 at 2 wt% using the previously prepared synthesised compound R9.
The synthesised compound R9 (0.1 g, 0.21 mmol) was suspended in water (5 ml), to this suspension sodium hydroxide was added (0.05 g, 1.25 mmol). Sonication and gentle heating was used to ensure the ligand had completely dissolved giving a solution with a pH of 9 – 10.
To this solution conc. Hydrochloric acid (0.4 ml) was rapidly added instantly producing a […]
3.5 Critical gel concentration (CGC):
Critical gel concentration was determined using the inverted vial method in 2 ml sample vials using 0.5 ml of water. This method can often give lower CGC values than are determined using a rheometer due to the low volume of solution and the high surface tension within the vials.

[3] = Gelation on lowering the pH with glucono-delta-lactone; details: in situ reaction at high pH after addition of GdL

Yield stress [1] | G′ [1] | G′′ [1] | CGC (critical gel concentration) [2] | Gelation [3] | Compound
140(10) μNm | 9000(200) Pa | 2300(100) Pa | 0.3 Wt% | – | O=C1C(=CNc2ccc(C(=O)O)cc2)C(=O)C(=CNc2ccc(C(=O)O)cc2)C(=O)C1=CNc1ccc(C(=O)O)cc1 [R1]
80(20) μNm | 12700(100) Pa | 3300(200) Pa | 0.2 Wt% | – | O=C1C(=CNc2ccc(Cl)c(C(=O)O)c2)C(=O)C(=CNc2ccc(Cl)c(C(=O)O)c2)C(=O)C1=CNc1ccc(Cl)c(C(=O)O)c1 [R2]
140(20) μNm | 10200(300) Pa | 2100(100) Pa | 0.5 Wt% | – | COc1cc(NC=C2C(=O)C(=CNc3ccc(C(=O)O)c(OC)c3)C(=O)C(=CNc3ccc(C(=O)O)c(OC)c3)C2=O)ccc1C(=O)O [R3]
40(10) μNm | 9300(200) Pa | 2100(200) Pa | 0.4 Wt% | – | O=C1C(=CNc2ccc(C(=O)O)cc2O)C(=O)C(=CNc2ccc(C(=O)O)cc2O)C(=O)C1=CNc1ccc(C(=O)O)cc1O [R4]
80(20) μNm | 10800(200) Pa | 3100(400) Pa | 0.4 Wt% | – | O=C1C(=CNc2cc(C(=O)O)ccc2O)C(=O)C(=CNc2cc(C(=O)O)ccc2O)C(=O)C1=CNc1cc(C(=O)O)ccc1O [R5]
250(30) μNm | 15400(300) Pa | 2600(200) Pa | 0.1 Wt% | – | O=C1C(=CNc2cc(C(=O)O)cc(C(F)(F)F)c2)C(=O)C(=CNc2cc(C(=O)O)cc(C(F)(F)F)c2)C(=O)C1=CNc1cc(C(=O)O)cc(C(F)(F)F)c1 [R6]
90(30) μNm | 8800(200) Pa | 2100(300) Pa | 0.5 Wt% | – | COc1c(NC=C2C(=O)C(=CNc3cccc(C(=O)O)c3OC)C(=O)C(=CNc3cccc(C(=O)O)c3OC)C2=O)cccc1C(=O)O [R7]
70(20) μNm | 9600(100) Pa | 2500(200) Pa | 0.5 Wt% | – | Cc1cc(NC=C2C(=O)C(=CNc3ccc(C(=O)O)c(C)c3)C(=O)C(=CNc3ccc(C(=O)O)c(C)c3)C2=O)ccc1C(=O)O [R8]
20(40) μNm | 1200(100) Pa | 300(300) Pa | 0.9 Wt% | – | O=C1C(=CNc2ccc(O)cc2)C(=O)C(=CNc2ccc(O)cc2)C(=O)C1=CNc1ccc(O)cc1 [R9]
– | – | – | – | no gelation | O=C(O)CCCCCNC=C1C(=O)C(=CNCCCCCC(=O)O)C(=O)C(=CNCCCCCC(=O)O)C1=O [R10]
